Measured values as given in patent US9572760B2, “Uses of compounds and mixtures from Antrodia cinnamomea mycelia” (Simpson Biotech Co., Ltd., priority 2013, dated 2017).

What was measured:
[1] = system: pre-fibrotic genes including α-SMA, TIMP, Collagen type I and TGF-β1; experiment: Real-time RT-PCR of pre-fibrotic gene expression in liver of cirrhotic animals; format: in vivo, Wistar rats; details: compound B 7 mg/kg, compound C 14 mg/kg, ACM 320 mg/kg
Protocol: Sample tissues of rat livers were measured about 0.5×0.5 cm in area. Each of tissue was homogenized in 1 mL of TRIzol buffer (Invitrogen, Carlsbad, Calif., USA) with a motorized pestle, and then mixed with 0.5 mL chloroform/isoamyl alcohol (24:1), and was centrifuged at 12,000×g for 10 min at 4° C. The supernatant was transferred to a fresh tube, and isopropanol was added, mix well and stored at −80° C. overnight. The reaction mixture was centrifuged at 12,000×g for 30 min at 4° C. to produce a rude RNA pallet, the pellet was washed with 70% ethanol and air-dried. The concentrations of total RNA were measured by absorbance at 260 nm using a NanoDrop ND-1000 (NanoDrop, USA). Reverse transcription reaction was performed using a commercially available set of High Capacity RNA-to-cDNA Kit (Applied Biosystems, USA). cDNA was prepared from 2 μg of total RNA per 20 μl reaction, according to the manufacturer's instructions—37° C. for 60 minutes, 95° C. for 5 minutes, and hold at 4° C. The resulting cDNA was to a final concentration of 100 ng/μl and constituted a matrix in further experiments. Amplification and detection the gene expression by real-time PCR were performed using StepOne plus Real-time PCR System (Applied Biosystems, USA). Samples were assayed in a 10 μl reaction mixture containing 2 μl of template DNA, 5 μl of 2× TaqMan PCR Master Mix (Applied Biosystems, Life Technologies, Foster City, Calif., USA), 0.5 μl of 20× assay mix containing probe, forward and reverse primer (Applied Biosystems, Life Technologies, Foster City, Calif., USA), whereby qPCR targets with the following information were used: (a) Rat α-SMA, Assay ID Rn01759928_g1, (b) Rat TIMP, Assay ID Rn00587558_m1, (c) Rat TGF-β1, Assay ID Rn00572010_m1, (d) Rat Collagen I, Assay ID Rn 01463838_m1, (e) Rat CuZnSOD, Assay ID Rn00566938_m1, (f) Rat MnSOD, Assay ID Rn00690587_g1, (g) Rat Catalase, Assay ID Rn00560930_m1, (h) Rat Glutathione peroxidase, Assay ID Rn00577994_g1, (i) Rat NADPH oxidase, Assay ID Rn00585380_m1 and (j) Rat GAPDH, Assay ID Rn1462662_g1. To control variation in mRNA concentration, all results were normalized to the housekeeping gene, GAPDH. Relative quantitation was performed using the comparative ΔΔCt method according to the manufacture's instructions. The cycling conditions used were as follows: 50° C. for 2 min, 95° C. for 10 min followed by 40 cycles of 95° C. for 15 s and 60° C. for 1 min each.

[2] = system: TGFb1-treated immortalized HSC; experiment: Profibrogenic gene expression in immortalized HSC with recombinant TGF-β treatment (qRT-PCR); format: cell-based, human; details: for Collagen-1 expression / TGF-β expression / TIMP-1 expression / αSMA expression: compounds 72 hours, then TGF-β (3 ng/ml) 48 hours
Source text: The AML12 (mouse hepatocyte) cells were obtained from the BCRC (Bioresource Collection and Research Center) and cultured in Dulbecco's modified Eagle media (DMEM, Gibco by Invitrogen) with 1% antibiotic antimycotic (Gibco by Invitrogen) and 15% fetal bovine serum (Gibco by Invitrogen). The human Hepatic Stellate Cell, HSC cell line was obtained from the ScienCell Research Laboratory (USA) and cultured in complete medium, Stellate Cell Medium (ScienCell Research Laboratory) with 2% fetal bovine serum (ScienCell Research Laboratory), 1% stellate cell growth supplement (ScienCell Research Laboratory) and 1% penicillin/streptomycin solution (ScienCell Research Laboratory). […] For primary hepatic stellate cell isolation, C57BL/6 mice were anesthetized by intraperitoneal injection of ketamine and xylazine. […] Mouse livers were perfused in situ with 0.5 mM EGTA containing calcium-free salt solution (8 ml/min, 37° C. for 5 minutes), followed by perfusion with 2-step 0.05% collagenase D and pronase containing buffer (Roche Molecular Biochemicals, Indianapolis, Ind.) for 5 and 10 minutes, respectively. The harvested liver was minced gently on a Petri dish and additional incubation with protease containing buffer at 37° C. for 25 minutes. Then, the liver was filtered with 70 μm cell strainer. Cells were centrifuged and collected followed by 8.2% Nycodenz (Accurate Chemical and Scientific Corp.). The cell lines were cultured at 37° C. in a humidified atmosphere containing 5% CO2.
Exponentially growing cells were harvested and seeded in a 6-well microtiter plate. Each well of cells were collected to eppendrof in 1 mL of TRIzol buffer (Invitrogen, Carlsbad, Calif., USA), and then mixed with 0.5 mL chloroform/isoamyl alcohol (24:1), eppendrofs were centrifuged at 12,000×g for 10 min at 4° C. The supernatant was transferred to a fresh tube, and isopropanol was added, mix well and stored at −80° C. overnight. The reaction mixture was centrifuged at 12,000×g for 30 min at 4° C. to produce a rude RNA pallet, the pellet was washed with 70% ethanol and air-dried. The concentrations of total RNA were measured by absorbance at 260 nm using a NanoDrop ND-1000 (NanoDrop, USA).
Reverse transcription reaction was performed using a commercially available set of High Capacity RNA-to-cDNA Kit (Applied Biosystems, USA). cDNA was prepared from 2 μg of total RNA per 20 μl reaction, according to the manufacturer's instructions—37° C. for 60 minutes, 95° C. for 5 minutes, and hold at 4° C. The resulting cDNA was to a final concentration of 100 ng/μl and constituted a matrix in further experiments.
Amplification and detection the gene expression by real-time PCR were performed using StepOne plus Real-time PCR System (Applied Biosystems, USA). Samples were assayed in a 10 μl reaction mixture containing 2 μl of template DNA, 5 μl of 2× TaqMan PCR Master Mix (Applied Biosystems, Life Technologies, Foster City, Calif., USA), 0.5 μl of 20× assay mix containing probe, forward and reverse primer (Applied Biosystems, Life Technologies, Foster City, Calif., USA), whereby qPCR targets with the following information were used: (a) α-SMA, Assay ID Rn01759928_g1, (b) TIMP-1, Assay ID Rn00587558_m1, (c) TGF-β1, Assay ID Rn00572010_m1, (d) Collagen I, Assay ID Rn 01463838_m1, (e) GAPDH, Assay ID Rn1462662_g1. To control variation in mRNA concentration, all results were normalized to the housekeeping gene, GAPDH. Relative quantitation was performed using the comparative ΔΔCt method according to the manufacturer's instructions. The cycling conditions used were as follows: 50° C. for 2 min, 95° C. for 10 min followed by 40 cycles of 95° C. for 15 s and 60° C. for 1 min each. […]

Compound: CC(C)=CCOc1ccc(C2=C(CC(C)C)C(=O)NC2=O)cc1 [Compound B, 3-isobutyl-4-[4-(3-methyl-2-butenyloxy)phenyl]-1H-pyrrol-2,5-dione]
- Collagen type I gene expression in liver [1]: reduced significantly
- TGF-β1 gene expression in liver [1]: reduced significantly
- TIMP gene expression in liver [1]: reduced significantly
- α-SMA gene expression in liver [1]: reduced significantly
- anti-fibrosis effect on immortalized HSC in response to TGF-β (summary) [2]: anti-fibrosis effect
- Collagen-1 expression [2]: dose-dependent effect
- TGF-β expression [2]: dose-dependent effect
- TIMP-1 expression [2]: dose-dependent effect
- αSMA expression [2]: dose-dependent effect

Compound: CC(C)=CCOc1ccc(C2=C(CC(C)C)C(=O)N(O)C2=O)cc1 [Compound C, 3-isobutyl-4-[4-(3-methyl-2-butenyloxy)phenyl]-1H-pyrrol-1-ol-2,5-dione]
- Collagen type I gene expression in liver [1]: reduced significantly
- TGF-β1 gene expression in liver [1]: reduced significantly
- TIMP gene expression in liver [1]: reduced significantly
- α-SMA gene expression in liver [1]: reduced significantly
- anti-fibrosis effect on immortalized HSC in response to TGF-β (summary) [2]: anti-fibrosis effect
- Collagen-1 expression [2]: dose-dependent effect
- TGF-β expression [2]: dose-dependent effect
- TIMP-1 expression [2]: dose-dependent effect
- αSMA expression [2]: dose-dependent effect
